{"source": "paper PMC4803471", "about": "(Anesthesiology, 2016)", "key": {"Sprague-Dawley rats [1]": {"tested_on": "Sprague-Dawley rats", "assay": "Rat loss of righting reflexes", "details": "intravenous, dose producing LORR in 50% of rats"}, "Sprague-Dawley rats [2]": {"tested_on": "Sprague-Dawley rats", "details": "previously published value; cited from earlier work"}, "[3]": {"details": "previously published value; cited from earlier work"}, "[4]": {"assay": "Octanol:water partition coefficient determination", "format": "physicochemical", "details": "mean ± SD"}, "[5]": {"target": "α1(L264T)β3γ2 GABAA receptors (Homo sapiens, UniProt P14867+P28472, L291T)", "sequence (P14867 28-456 L291T)": "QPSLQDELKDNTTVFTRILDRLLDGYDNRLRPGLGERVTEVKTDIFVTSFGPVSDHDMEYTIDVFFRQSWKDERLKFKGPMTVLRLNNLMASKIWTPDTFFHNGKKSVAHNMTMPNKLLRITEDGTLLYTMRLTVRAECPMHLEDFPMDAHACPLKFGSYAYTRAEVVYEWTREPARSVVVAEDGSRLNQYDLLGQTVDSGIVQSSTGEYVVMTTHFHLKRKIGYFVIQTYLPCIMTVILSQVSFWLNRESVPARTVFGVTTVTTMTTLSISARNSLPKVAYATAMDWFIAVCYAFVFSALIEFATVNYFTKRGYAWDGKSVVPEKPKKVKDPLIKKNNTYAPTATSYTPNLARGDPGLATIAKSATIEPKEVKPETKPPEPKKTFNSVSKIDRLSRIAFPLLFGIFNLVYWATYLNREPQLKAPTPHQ", "sequence (P28472 26-473)": "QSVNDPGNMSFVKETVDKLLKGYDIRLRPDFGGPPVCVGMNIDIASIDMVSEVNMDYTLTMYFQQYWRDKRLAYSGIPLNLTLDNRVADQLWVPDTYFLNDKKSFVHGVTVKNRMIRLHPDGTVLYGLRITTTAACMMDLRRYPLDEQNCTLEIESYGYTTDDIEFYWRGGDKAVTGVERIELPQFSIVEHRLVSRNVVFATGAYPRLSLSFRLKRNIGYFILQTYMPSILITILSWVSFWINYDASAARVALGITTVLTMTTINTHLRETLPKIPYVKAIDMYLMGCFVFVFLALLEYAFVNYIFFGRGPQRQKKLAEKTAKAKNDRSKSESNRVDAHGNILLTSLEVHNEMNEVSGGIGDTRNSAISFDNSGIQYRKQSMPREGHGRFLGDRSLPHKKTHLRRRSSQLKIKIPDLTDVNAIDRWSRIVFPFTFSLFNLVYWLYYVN", "sequence (P18507 40-475 partner)": "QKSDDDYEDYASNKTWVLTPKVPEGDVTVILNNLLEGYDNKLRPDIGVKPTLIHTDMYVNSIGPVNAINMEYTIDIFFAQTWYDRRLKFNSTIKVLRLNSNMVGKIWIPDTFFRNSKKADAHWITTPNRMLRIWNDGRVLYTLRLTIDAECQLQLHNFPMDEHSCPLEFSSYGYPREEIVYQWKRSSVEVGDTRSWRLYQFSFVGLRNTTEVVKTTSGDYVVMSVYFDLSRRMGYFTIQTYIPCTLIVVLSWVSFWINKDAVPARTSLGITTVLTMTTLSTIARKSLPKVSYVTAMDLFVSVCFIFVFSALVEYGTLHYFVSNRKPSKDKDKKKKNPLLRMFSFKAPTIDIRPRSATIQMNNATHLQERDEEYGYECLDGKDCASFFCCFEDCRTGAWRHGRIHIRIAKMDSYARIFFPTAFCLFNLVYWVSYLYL", "format": "cell-based", "details": "for Peak amplitude of evoked current: representative trace, single oocyte"}}, "note": "Read-outs that look alike come from different tables or passages of the source.", "data": [{"molecule": "4-Pyridine carboetomidate [Compound 7]", "values": [{"measurement": "Hypnotic ED50 (loss of righting reflexes)", "setting": "Sprague-Dawley rats [1]", "value": "25.0 ± 0.3", "unit": "mg/kg"}]}, {"molecule": "CCOC(=O)c1cncn1[C@H](C)c1ccccc1", "note": "[Compound 1, Etomidate, reference compound]", "values": [{"measurement": "Hypnotic ED50 (loss of righting reflexes)", "setting": "Sprague-Dawley rats [2]", "value": "0.47 ± 0.17 (13) mg/kg"}, {"measurement": "Octanol:Buffer Partition Coefficient", "setting": "[3]", "value": "731 ± 72 (13)"}]}, {"molecule": "COC(=O)c1cncn1C(C)c1ccccc1", "note": "(centres unmarked) [Compound 2, Metomidate, reference compound]", "values": [{"measurement": "Octanol:Buffer Partition Coefficient", "setting": "[4]", "value": "380 ± 48"}, {"measurement": "EC50", "setting": "[5]", "value": "4.4 ± 0.7", "unit": "µM"}]}, {"molecule": "CCOC(=O)c1cncn1[C@@H](C)c1ccccc1", "note": "[Compound 3, S-etomidate]", "values": [{"measurement": "Hypnotic ED50 (loss of righting reflexes)", "setting": "Sprague-Dawley rats [2]", "value": "5.2 ± 0.9 (13) mg/kg"}, {"measurement": "Octanol:Buffer Partition Coefficient", "setting": "[3]", "value": "711 ± 90 (13)"}]}, {"molecule": "CCOC(=O)c1cncn1Cc1ccccc1", "note": "[Compound 4, Dihydrogen etomidate]", "values": [{"measurement": "Hypnotic ED50 (loss of righting reflexes)", "setting": "Sprague-Dawley rats [2]", "value": "5.2 ± 1 (13) mg/kg"}, {"measurement": "Octanol:Buffer Partition Coefficient", "setting": "[3]", "value": "388 ± 32 (13)"}]}, {"molecule": "CCOC(=O)c1cncn1C1(c2ccccc2)CC1", "note": "[Compound 5, Cyclopropyletomidate]", "values": [{"measurement": "Hypnotic ED50 (loss of righting reflexes)", "setting": "Sprague-Dawley rats [2]", "value": "5.2 ± 0.7 (13) mg/kg"}, {"measurement": "Octanol:Buffer Partition Coefficient", "setting": "[3]", "value": "458 ± 45 (13)"}]}, {"molecule": "CCOC(=O)c1cccn1[C@H](C)c1ccccc1", "note": "[Compound 6, Carboetomidate]", "values": [{"measurement": "Hypnotic ED50 (loss of righting reflexes)", "setting": "Sprague-Dawley rats [2]", "value": "7.7 ± 0.8 (18) mg/kg"}, {"measurement": "Potency relative to 4-pyridine carboetomidate", "setting": "[5]; fold higher GABAA receptor potency", "value": 24, "unit": "fold"}, {"measurement": "GABAA receptors activated at the highest concentration studied (at most)", "setting": "[5]; normalized to 100 μM GABA, limited by aqueous solubility", "value": "≤ 68 ± 6", "unit": "%"}, {"measurement": "Potency for directly activating GABAA receptors relative to etomidate", "setting": "[5]; ratio of EC50s", "value": "approximately 1/8"}, {"measurement": "Octanol:Buffer Partition Coefficient", "setting": "[3]", "value": "15,000 ± 3,700 (20)"}]}, {"molecule": "COC(=O)COC(=O)c1cncn1[C@H](C)c1ccccc1", "note": "[Compound 11, Methoxycarbonyl metomidate]", "values": [{"measurement": "Hypnotic ED50 (loss of righting reflexes)", "setting": "Sprague-Dawley rats [2]", "value": "11.1 ± 0.8 (19) mg/kg"}, {"measurement": "Octanol:Buffer Partition Coefficient", "setting": "[3]", "value": "159 ± 15 (19)"}]}, {"molecule": "COC(=O)[C@H](C)OC(=O)c1cncn1[C@H](C)c1ccccc1", "note": "[Compound 12, S-methyl-methoxycarbonyl metomidate]", "values": [{"measurement": "Hypnotic ED50 (loss of righting reflexes)", "setting": "Sprague-Dawley rats [2]", "value": "3.5 ± 0.4 (19) mg/kg"}, {"measurement": "Octanol:Buffer Partition Coefficient", "setting": "[3]", "value": "330 ± 16 (19)"}]}, {"molecule": "COC(=O)[C@@H](C)OC(=O)c1cncn1[C@H](C)c1ccccc1", "note": "[Compound 13, R-methyl-methoxycarbonyl metomidate]", "values": [{"measurement": "Hypnotic ED50 (loss of righting reflexes)", "setting": "Sprague-Dawley rats [2]", "value": "9.6 ± 1.9 (19) mg/kg"}, {"measurement": "Octanol:Buffer Partition Coefficient", "setting": "[3]", "value": "380 ± 15 (19)"}]}, {"molecule": "COC(=O)C(C)(C)OC(=O)c1cncn1[C@H](C)c1ccccc1", "note": "[Compound 14, Dimethyl-methoxycarbonyl metomidate]", "values": [{"measurement": "Hypnotic ED50 (loss of righting reflexes)", "setting": "Sprague-Dawley rats [2]", "value": "0.72 ± 0.16 (19) mg/kg"}, {"measurement": "Octanol:Buffer Partition Coefficient", "setting": "[3]", "value": "660 ± 110 (19)"}]}, {"molecule": "COC(=O)CCOC(=O)c1cncn1[C@H](c1ccccc1)C(C)C", "note": "[Compound 16, (S)-isopropyl-methoxycarbonyl metomidate]", "values": [{"measurement": "Hypnotic ED50 (loss of righting reflexes)", "setting": "Sprague-Dawley rats [2]", "value": "1.2 ± 0.2 (19) mg/kg"}, {"measurement": "Peak amplitude of evoked current", "setting": "[5]; 1 μM", "value": 0.29, "unit": "μA"}, {"measurement": "Peak amplitude of evoked current", "setting": "[5]; 10 μM", "value": 0.90, "unit": "μA"}, {"measurement": "Octanol:Buffer Partition Coefficient", "setting": "[3]", "value": "2,860 ± 67 (19)"}]}, {"molecule": "COC(=O)CCOC(=O)c1cncn1[C@@H](c1ccccc1)C(C)C", "note": "[Compound 17, (R)-isopropyl-methoxycarbonyl metomidate]", "values": [{"measurement": "Hypnotic ED50 (loss of righting reflexes)", "setting": "Sprague-Dawley rats [2]", "value": "3.6 ± 0.8 (19) mg/kg"}, {"measurement": "Peak amplitude of evoked current", "setting": "[5]; 1 μM", "value": 0.041, "unit": "μA"}, {"measurement": "Octanol:Buffer Partition Coefficient", "setting": "[3]", "value": "3,830 ± 310 (19)"}]}, {"molecule": "COC(=O)CCOC(=O)c1cncn1[C@H](C)c1ccccc1", "note": "[Compound 18, Methoxycarbonyl etomidate]", "values": [{"measurement": "Hypnotic ED50 (loss of righting reflexes)", "setting": "Sprague-Dawley rats [2]", "value": "5.3 ± 1.5 (19) mg/kg"}, {"measurement": "Octanol:Buffer Partition Coefficient", "setting": "[3]", "value": "190 ± 25 (19)"}]}, {"molecule": "COC(=O)[C@@H](C)COC(=O)c1cncn1[C@H](C)c1ccccc1", "note": "[Compound 19, α-(S)-methyl methoxycarbonyl etomidate]", "values": [{"measurement": "Hypnotic ED50 (loss of righting reflexes)", "setting": "Sprague-Dawley rats [2]", "value": "3.1 ± 0.4 (19) mg/kg"}, {"measurement": "Octanol:Buffer Partition Coefficient", "setting": "[3]", "value": "530 ± 170 (19)"}]}, {"molecule": "COC(=O)[C@H](C)COC(=O)c1cncn1[C@H](C)c1ccccc1", "note": "[Compound 20, α-(R)-methyl-methoxycarbonyl etomidate]", "values": [{"measurement": "Hypnotic ED50 (loss of righting reflexes)", "setting": "Sprague-Dawley rats [2]", "value": "5.2 ± 0.5 (19) mg/kg"}, {"measurement": "Octanol:Buffer Partition Coefficient", "setting": "[3]", "value": "670 ± 120 (19)"}]}, {"molecule": "COC(=O)C(C)(C)COC(=O)c1cncn1[C@H](C)c1ccccc1", "note": "[Compound 21, α-Dimethyl-methoxycarbonyl etomidate]", "values": [{"measurement": "Hypnotic ED50 (loss of righting reflexes)", "setting": "Sprague-Dawley rats [2]", "value": "2.4 ± 1 (19) mg/kg"}, {"measurement": "Octanol:Buffer Partition Coefficient", "setting": "[3]", "value": "2,240 ± 150 (19)"}]}, {"molecule": "COC(=O)C[C@@H](C)OC(=O)c1cncn1[C@H](C)c1ccccc1", "note": "[Compound 22, β-(R)-methyl-methoxycarbonyl etomidate]", "values": [{"measurement": "Hypnotic ED50 (loss of righting reflexes)", "setting": "Sprague-Dawley rats [2]", "value": "3.5 ± 0.6 (19) mg/kg"}, {"measurement": "Octanol:Buffer Partition Coefficient", "setting": "[3]", "value": "500 ± 24 (19)"}]}, {"molecule": "COC(=O)CC(C)(C)OC(=O)c1cncn1C(C)c1ccccc1", "note": "(stereo not drawn) [Compound 23, β-Dimethyl-methoxycarbonyl etomidate]", "values": [{"measurement": "Hypnotic ED50 (loss of righting reflexes)", "setting": "Sprague-Dawley rats [2]", "value": "1.9 ± 0.3 (19) mg/kg"}, {"measurement": "Octanol:Buffer Partition Coefficient", "setting": "[3]", "value": "1,580 ± 40 (19)"}]}, {"molecule": "Cyclopropyl methoxycarbonyl metomidate [Compound 15]", "values": [{"measurement": "Hypnotic ED50 (loss of righting reflexes)", "setting": "Sprague-Dawley rats [2]", "value": "0.69 ± 0.04 (19) mg/kg"}, {"measurement": "Octanol:Buffer Partition Coefficient", "setting": "[3]", "value": "420 ± 11 (19)"}]}, {"molecule": "Racemic pentafluoroetomidate [Compound 8]", "values": [{"measurement": "Octanol:Buffer Partition Coefficient", "setting": "[4]", "value": "860 ± 260"}, {"measurement": "Hypnotic ED50 (loss of righting reflexes)", "setting": "Sprague-Dawley rats [1]", "value": "1.7 ± 0.4", "unit": "mg/kg"}]}, {"molecule": "S-pentafluoroetomidate [Compound 9]", "values": [{"measurement": "Octanol:Buffer Partition Coefficient", "setting": "[4]", "value": "880 ± 220"}, {"measurement": "EC50 of S-enantiomer relative to racemic mixture", "setting": "[5]; fold higher EC50", "value": 22, "unit": "fold"}, {"measurement": "Hypnotic ED50 (loss of righting reflexes)", "setting": "Sprague-Dawley rats [1]", "value": "11.1 ± 0.8", "unit": "mg/kg"}]}]}
